From ChEMBL document CHEMBL4373745, “Design, synthesis and cytotoxicity of BODIPY FL labelled triterpenoids” (Eur J Med Chem, 2020)

Assays:
A-375 = assay: Cytotoxicity against human A375 cells assessed as reduction in cell viability incubated for 96 hrs by SRB assay; format: functional, cell-based; settings: A-375, 96 h
FaDu = assay: Cytotoxicity against human FADU cells assessed as reduction in cell viability incubated for 96 hrs by SRB assay; format: functional, cell-based
HT-29 = assay: Cytotoxicity against human HT-29 cells assessed as reduction in cell viability incubated for 96 hrs by SRB assay; format: functional, cell-based; settings: HT-29, 96 h
NIH3T3 = assay: Cytotoxicity against mouse NIH/3T3 cells assessed as reduction in cell viability incubated for 96 hrs by SRB assay; format: cell-based; settings: NIH3T3, 96 h
MCF7 = assay: Cytotoxicity against human MCF7 cells assessed as reduction in cell viability incubated for 96 hrs by SRB assay; format: functional, cell-based; settings: MCF7, 96 h
A2780 = assay: Cytotoxicity against human A2780 cells assessed as reduction in cell viability incubated for 96 hrs by SRB assay; format: functional, cell-based; settings: A2780, 96 h

In the case of `C=C(C)[C@@H]1CC[C@]2(CO)CC[C@]3(C)[C@H](CC[C@@H]4[C@@]5(C)CC[C@H](OC(C)=O)C(C)(C)[C@@H]5CC[C@]43C)[C@@H]12`, the EC50 (A-375) is reported as greater than 30 µM, the EC50 (FaDu) is reported as greater than 30 µM and the EC50 (HT-29) is reported as greater than 30 µM. The EC50 (NIH3T3) was greater than 30 µM.
With `CC(=O)O[C@H]1CC[C@]2(C)[C@H]3CC=C4[C@@H]5[C@@H](C)[C@H](C)CC[C@]5(C(=O)NCCN)CC[C@@]4(C)[C@]3(C)CC[C@H]2C1(C)C` the EC50 (FaDu) was 3.7 µM, the EC50 (MCF7) was 2 µM and the EC50 (HT-29) was 1.8 µM. The EC50 (A2780) was 2.3 µM and the EC50 (NIH3T3) was 2.6 µM.
With `CC(=O)O[C@H]1CC[C@]2(C)[C@H]3CC=C4[C@@H]5[C@@H](C)[C@H](C)CC[C@]5(C(=O)N5CCNCC5)CC[C@@]4(C)[C@]3(C)CC[C@H]2C1(C)C` the EC50 (FaDu) was 1.9 µM.
`CC(=O)O[C@H]1CC[C@]2(C)[C@H]3CC=C4[C@@H]5CC(C)(C)CC[C@]5(C(=O)N5CCNCC5)CC[C@@]4(C)[C@]3(C)CC[C@H]2C1(C)C` showed an EC50 (FaDu) of 1.6 µM.
`C=C(C)[C@@H]1CC[C@]2(C(=O)N3CCNCC3)CC[C@]3(C)[C@H](CC[C@@H]4[C@@]5(C)CC[C@H](OC(C)=O)C(C)(C)[C@@H]5CC[C@]43C)[C@@H]12` was tested, and the EC50 (FaDu) was 1.3 µM.
`CC(=O)O[C@H]1CC[C@]2(C)[C@H]3CC=C4[C@@H]5CC(C)(C)CC[C@]5(C(=O)NCCN)CC[C@@]4(C)[C@]3(C)CC[C@H]2C1(C)C` showed an EC50 (FaDu) of 4.3 µM, an EC50 (MCF7) of 1.7 µM and an EC50 (HT-29) of 2 µM. It also gave an EC50 (A2780) of 3.1 µM and an EC50 (NIH3T3) of 2.1 µM.
`CC(=O)O[C@H]1CC[C@]2(C)[C@H]3CC=C4[C@@H]5[C@@H](C)[C@H](C)CC[C@]5(C(=O)N5CCN(C(=O)CCC6=[N+]7C(=Cc8c(C)cc(C)n8[B-]7(F)F)C=C6)CC5)CC[C@@]4(C)[C@]3(C)CC[C@H]2C1(C)C` showed an EC50 (A-375) of 21.6 µM, an EC50 (FaDu) greater than 30 µM and an EC50 (MCF7) of 24.4 µM. It also gave an EC50 (HT-29) greater than 30 µM, an EC50 (A2780) greater than 30 µM and an EC50 (NIH3T3) greater than 30 µM.
Molecule `C=C(C)[C@@H]1CC[C@]2(C(=O)NCCNC(=O)CCC3=[N+]4C(=Cc5c(C)cc(C)n5[B-]4(F)F)C=C3)CC[C@]3(C)[C@H](CC[C@@H]4[C@@]5(C)CC[C@H](OC(C)=O)C(C)(C)[C@@H]5CC[C@]43C)[C@@H]12` has an EC50 (A-375) greater than 30 µM, an EC50 (FaDu) greater than 30 µM and an EC50 (MCF7) of 11.3 µM. The EC50 (HT-29) was greater than 30 µM, the EC50 (A2780) was greater than 30 µM and the EC50 (NIH3T3) was greater than 30 µM.
With `C=C(C)[C@@H]1CC[C@]2(C(=O)NCCN)CC[C@]3(C)[C@H](CC[C@@H]4[C@@]5(C)CC[C@H](OC(C)=O)C(C)(C)[C@@H]5CC[C@]43C)[C@@H]12` the EC50 (FaDu) was 1.2 µM, the EC50 (MCF7) was 1.3 µM and the EC50 (HT-29) was 1 µM. For the same molecule, the EC50 (A2780) was 1.4 µM and the EC50 (NIH3T3) was 1.4 µM.
`C=C(C)[C@@H]1CC[C@]2(C(=O)N3CCN(C(=O)CCC4=[N+]5C(=Cc6c(C)cc(C)n6[B-]5(F)F)C=C4)CC3)CC[C@]3(C)[C@H](CC[C@@H]4[C@@]5(C)CC[C@H](OC(C)=O)C(C)(C)[C@@H]5CC[C@]43C)[C@@H]12` gave an EC50 (A-375) greater than 30 µM, an EC50 (FaDu) greater than 30 µM and an EC50 (MCF7) greater than 30 µM. It also gave an EC50 (HT-29) greater than 30 µM, an EC50 (A2780) greater than 30 µM and an EC50 (NIH3T3) greater than 30 µM.
Molecule `CC(=O)O[C@H]1CC[C@]2(C)[C@H]3C(=O)C=C4[C@@H]5C[C@@](C)(C(=O)NCCN)CC[C@]5(C)CC[C@@]4(C)[C@]3(C)CC[C@H]2C1(C)C` has an EC50 (FaDu) of 5.7 µM, an EC50 (MCF7) of 3.2 µM and an EC50 (HT-29) of 4.3 µM. For the same molecule, the EC50 (A2780) was 2 µM and the EC50 (NIH3T3) was 4.3 µM.
Molecule `CC(=O)O[C@H]1CC[C@]2(C)[C@H]3C(=O)C=C4[C@@H]5C[C@@](C)(C(=O)N6CCN(C(=O)CCC7=[N+]8C(=Cc9c(C)cc(C)n9[B-]8(F)F)C=C7)CC6)CC[C@]5(C)CC[C@@]4(C)[C@]3(C)CC[C@H]2C1(C)C` has an EC50 (A-375) of 8.3 µM, an EC50 (FaDu) of 8.6 µM and an EC50 (MCF7) of 7.9 µM. For the same molecule, the EC50 (HT-29) was greater than 30 µM, the EC50 (A2780) was 7.8 µM and the EC50 (NIH3T3) was 9.1 µM.
`CC(=O)O[C@H]1CC[C@]2(C)[C@H]3C(=O)C=C4[C@@H]5C[C@@](C)(C(=O)N6CCNCC6)CC[C@]5(C)CC[C@@]4(C)[C@]3(C)CC[C@H]2C1(C)C` showed an EC50 (FaDu) of 8.7 µM, an EC50 (MCF7) of 8.4 µM and an EC50 (HT-29) of 4.4 µM. It also gave an EC50 (A2780) of 8.2 µM and an EC50 (NIH3T3) of 8.7 µM.
Work on `CC(=O)O[C@H]1CC[C@]2(C)[C@H]3CC=C4[C@@H]5CC(C)(C)CC[C@]5(C(=O)NCCNC(=O)CCC5=[N+]6C(=Cc7c(C)cc(C)n7[B-]6(F)F)C=C5)CC[C@@]4(C)[C@]3(C)CC[C@H]2C1(C)C` yielded an EC50 (A-375) of 4.3 µM, an EC50 (FaDu) of 7 µM and an EC50 (MCF7) of 2.3 µM. It also gave an EC50 (HT-29) greater than 30 µM, an EC50 (A2780) of 10.3 µM and an EC50 (NIH3T3) of 3.4 µM.
Molecule `C=C(C)[C@@H]1CC[C@]2(COC(=O)CCC3=[N+]4C(=Cc5c(C)cc(C)n5[B-]4(F)F)C=C3)CC[C@]3(C)[C@H](CC[C@@H]4[C@@]5(C)CC[C@H](OC(C)=O)C(C)(C)[C@@H]5CC[C@]43C)[C@@H]12` has an EC50 (A-375) greater than 30 µM, an EC50 (FaDu) greater than 30 µM and an EC50 (MCF7) of 28.9 µM. It also gave an EC50 (HT-29) greater than 30 µM, an EC50 (A2780) greater than 30 µM and an EC50 (NIH3T3) greater than 30 µM.
`CC(=O)O[C@H]1CC[C@]2(C)[C@H]3C(=O)C=C4[C@@H]5C[C@@](C)(C(=O)NCCNC(=O)CCC6=[N+]7C(=Cc8c(C)cc(C)n8[B-]7(F)F)C=C6)CC[C@]5(C)CC[C@@]4(C)[C@]3(C)CC[C@H]2C1(C)C` showed an EC50 (A-375) of 23.9 µM, an EC50 (FaDu) greater than 30 µM and an EC50 (MCF7) of 7.2 µM. For the same molecule, the EC50 (HT-29) was 26.5 µM, the EC50 (A2780) was 18.4 µM and the EC50 (NIH3T3) was greater than 30 µM.
With `Cc1cc(C)n2c1C=C1C=CC(CCC(=O)O)=[N+]1[B-]2(F)F` the EC50 (A-375) was greater than 30 µM, the EC50 (FaDu) was greater than 30 µM and the EC50 (MCF7) was greater than 30 µM. The EC50 (HT-29) was greater than 30 µM, the EC50 (A2780) was greater than 30 µM and the EC50 (NIH3T3) was greater than 30 µM.
With `CC(=O)O[C@H]1CC[C@]2(C)[C@H]3CC=C4[C@@H]5CC(C)(C)CC[C@]5(C(=O)N5CCN(C(=O)CCC6=[N+]7C(=Cc8c(C)cc(C)n8[B-]7(F)F)C=C6)CC5)CC[C@@]4(C)[C@]3(C)CC[C@H]2C1(C)C` the EC50 (A-375) was 29.8 µM, the EC50 (FaDu) was greater than 30 µM and the EC50 (MCF7) was greater than 30 µM. For the same molecule, the EC50 (HT-29) was greater than 30 µM, the EC50 (A2780) was greater than 30 µM and the EC50 (NIH3T3) was greater than 30 µM.
In the case of `CC(=O)O[C@H]1CC[C@]2(C)[C@H]3CC=C4[C@@H]5[C@@H](C)[C@H](C)CC[C@]5(C(=O)NCCNC(=O)CCC5=[N+]6C(=Cc7c(C)cc(C)n7[B-]6(F)F)C=C5)CC[C@@]4(C)[C@]3(C)CC[C@H]2C1(C)C`, the EC50 (A-375) is reported as 4 µM, the EC50 (FaDu) is reported as 5.7 µM and the EC50 (MCF7) is reported as 2.2 µM. For the same molecule, the EC50 (HT-29) was greater than 30 µM, the EC50 (A2780) was 8.7 µM and the EC50 (NIH3T3) was 3 µM.
`C=C(C)[C@@H]1CC[C@]2(COC(C)=O)CC[C@]3(C)[C@H](CC[C@@H]4[C@@]5(C)CC[C@H](OC(=O)CCC6=[N+]7C(=Cc8c(C)cc(C)n8[B-]7(F)F)C=C6)C(C)(C)[C@@H]5CC[C@]43C)[C@@H]12` showed an EC50 (FaDu) of 4.7 µM, an EC50 (MCF7) of 4.3 µM and an EC50 (HT-29) of 3.1 µM. It also gave an EC50 (A2780) of 2.7 µM and an EC50 (NIH3T3) of 9.2 µM.
In the case of `C=C(C)[C@@H]1CC[C@]2(COC(C)=O)CC[C@]3(C)[C@H](CC[C@@H]4[C@@]5(C)CC[C@H](OC(C)=O)C(C)(C)[C@@H]5CC[C@]43C)[C@@H]12` [BETULIN DIACETATE], the EC50 (A-375) is reported as greater than 30 µM, the EC50 (FaDu) is reported as greater than 30 µM and the EC50 (MCF7) is reported as greater than 30 µM. The EC50 (HT-29) was greater than 30 µM, the EC50 (A2780) was greater than 30 µM and the EC50 (NIH3T3) was greater than 30 µM.
`C=C(C)[C@@H]1CC[C@]2(CO)CC[C@]3(C)[C@H](CC[C@@H]4[C@@]5(C)CC[C@H](O)C(C)(C)[C@@H]5CC[C@]43C)[C@@H]12` [BETULIN] gave an EC50 (A-375) greater than 30 µM, an EC50 (FaDu) greater than 30 µM and an EC50 (MCF7) greater than 30 µM. It also gave an EC50 (HT-29) greater than 30 µM, an EC50 (A2780) greater than 30 µM and an EC50 (NIH3T3) greater than 30 µM.
`CC1(C)[C@@H](O)CC[C@]2(C)[C@H]3C(=O)C=C4[C@@H]5C[C@@](C)(C(=O)O)CC[C@]5(C)CC[C@@]4(C)[C@]3(C)CC[C@@H]12` [ENOXOLONE] gave an EC50 (FaDu) greater than 30 µM.
`CC1(C)CC[C@]2(C(=O)O)CC[C@]3(C)C(=CC[C@@H]4[C@@]5(C)CC[C@H](O)C(C)(C)[C@@H]5CC[C@]43C)[C@@H]2C1` [OLEANOLIC_ACID] showed an EC50 (FaDu) greater than 30 µM and an EC50 (A2780) greater than 30 µM.
For `C[C@H]1[C@H](C)CC[C@]2(C(=O)O)CC[C@]3(C)C(=CC[C@@H]4[C@@]5(C)CC[C@H](O)C(C)(C)[C@@H]5CC[C@]43C)[C@H]12` [URSOLIC ACID], the EC50 (NIH3T3) was 13.1 µM.
